Laboratory results as given in patent publication US20230149401A1 (priority 2020, published 2023).

System: HIV particles pseudotyped with SARS-CoV-2 S
Type: cell-based

Question: With CCN(CC)CCCC(C)Nc1ccnc2cc(Cl)ccc12 (stereo not shown) [chloroquine, reference compound] as the compound, how does the “Entry of pseudotyped SARS-CoV-2 and its μS1/S2 mutant” value read?
Answer: The value was “efficiently blocked entry”.
